Source: patent US20230011869A1 (Hoffmann-La Roche Inc., priority 2018, published 2023)
Counter-ions that a name gives are not always drawn.

tested on: Acinetobacter baumannii ATCC17978; test: Antimicrobial susceptibility testing: 90% growth inhibitory concentration (IC90) determination, Iso-Sensitest broth; assay type: cell-based; conditions: 90% growth inhibitory concentration, Acinetobacter baumannii ATCC17978, Iso-Sensitest broth, OD 600 nm over 16 h; read-out: ATCC17978 IC90
In short: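 A. baumannii ATCC17978 grown in Iso-Sensitest broth across 10 compound concentrations at 35±2 °C.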

Row | IC90 [nM] | SMILES
1 | 1200 | Cc1cc(Nc2nccn3c(-c4ccc(OCC#N)c(F)c4F)cnc23)ccc1C(=O)N1CCN(C(=O)N2CCN[C@H](C(=O)O)C2)CC1 [Example 442, (2S)-4-[4-[4-[[3-[4-(cyanomethoxy)-2,3-difluorophenyl]imidazo[1,2-a]pyrazin-8-yl]amino]-2-methylbenzoyl]piperazine-1-carbonyl]piperazine-2-carboxylic acid]
2 | 2000 | Cc1cc(Nc2nccn3c(-c4ccc(OS(C)(=O)=O)c(F)c4F)cnc23)ccc1C(=O)N1CCN(C(=O)C2CCNCC2)CC1 [Example 446, [2,3-difluoro-4-[8-[3-methyl-4-[4-(piperidine-4-carbonyl)piperazine-1-carbonyl]anilino]imidazo[1,2-a]pyrazin-3-yl]phenyl] methanesulfonate]
3 | 2400 | Cc1cc(Nc2nccn3c(-c4ccc(OCC#N)c(F)c4F)cnc23)ccc1C(=O)N1CCN(C(=O)N2CCN[C@@H](C(=O)O)C2)CC1 [Example 450, (2R)-4-[4-[4-[[3-[4-(cyanomethoxy)-2,3-difluorophenyl]imidazo[1,2-a]pyrazin-8-yl]amino]-2-methylbenzoyl]piperazine-1-carbonyl]piperazine-2-carboxylic acid]
4 | 2700 | CCc1cc(Nc2nccn3c(-c4ccc(OS(C)(=O)=O)c(F)c4F)cnc23)ccc1C(=O)N1CCN(C(=O)C2CCNCC2)CC1 [Example 451, [4-[8-[3-ethyl-4-[4-(piperidine-4-carbonyl)piperazine-1-carobnyl]anilino]imidazo[1,2-a]pyrazin-3-yl]-2,3-difluorophenyl] methanesulfonate; formic acid]
5 | 82 | Cc1cc(Nc2nccn3c(-c4ccc(O[C@@H](C)C#N)c(F)c4F)cnc23)ccc1C(=O)N1CCN(C(=O)[C@@H]2C[C@](C)(O)CN2)CC1 [Example 459, (2S)-2-[2,3-difluoro-4-[8-[4-[4-[(2S,4S)-4-hydroxy-4-methylpyrrolidine-2-carbonyl]piperazine-1-carbonyl]-3-methylanilino]imidazo[1,2-a]pyrazin-3-yl]phenoxy]propanenitrile; for-mic acid]
6 | 180 | Cc1cc(Nc2nccn3c(-c4ccc(O[C@@H](C)C#N)c(F)c4F)cnc23)ccc1C(=O)N1CCN(C(=O)C2(O)CCNCC2)CC1 [Example 467, (2S)-2-[2,3-difluoro-4-[8-[4-[4-(4-hydroxypiperidine-4-carbonyl)piperazine-1-carbonyl]-3-methylanilino]imidazo[1,2-a]pyrazin-3-yl]phenoxy]propanenitrile; for-mic acid]
7 | 200 | Cc1cc(Nc2nccn3c(-c4ccc(O[C@@H](C)C#N)c(F)c4F)cnc23)ccc1C(=O)N1CCN(C(=O)[C@@H]2C[C@@H](O)CN2)CC1 [Example 468, (2S)-2-[2,3-difluoro-4-[8-[4-[4-[(2S,4R)-4-hydroxypyrrolidine-2-carbonyl]piperazine-1-carbonyl]-3-methylanilino]imidazo[1,2-a]pyrazin-3-yl]phenoxy]propanenitrile; for-mic acid]
8 | 88 | Cc1cc(Nc2nccn3c(-c4ccc(OCC#N)c(F)c4Cl)cnc23)ccc1C(=O)N1CCC(C(=O)OC[C@H]2CNCCN2)CC1 [Example 469, [(2R)-piperazin-2-yl]methyl 1-[4-[[3-[2-chloro-4-(cyanomethoxy)-3-fluorophenyl]imidazo[1,2-a]pyrazin-8-yl]amino]-2-methylbenzoyl]piperidine-4-carboxylate]

same assay, conditions: Acinetobacter baumannii, ATCC17978, 16 h, read-out: ATCC17978 IC90, 90% growth inhibitory concentration, Acinetobacter baumannii ATCC17978, Iso-Sensitest broth, OD 600 nm over 16 h

Row | SMILES | IC90 [nM]
9 | COc1ccc(-c2cnc3c(Nc4ccc(C(=O)N5CCN(C(=O)N6CCN[C@@H](C(=O)O)C6)CC5)c(C)c4)nccn23)c(F)c1F [Example 436, (2R)-4-[4-[4-[[3-(2,3-difluoro-4-methoxyphenyl)imidazo[1,2-a]pyrazin-8-yl]amino]-2-methylbenzoyl]piperazine-1-carbonyl]piperazine-2-carboxylic acid; formic acid] | 760
10 | Cc1cc(Nc2nccn3c(-c4ccc(OC(F)F)cc4)cnc23)ccc1C(=O)N1CCN(C(=O)[C@@H](N)Cc2cnc[nH]2)CC1 [Example 437, (2S)-2-amino-1-[4-[4-[[3-[4-(difluoromethoxy)phenyl]imi-dazo[1,2-a]pyrazin-8-yl]amino]-2-methylbenzoyl]piperazin-1-yl]-3-(1H-imidazol-5-yl)propan-1-one; hydrochloride] | 770
11 | Cc1cc(Nc2nccn3c(-c4ccc(OC(F)F)cc4)cnc23)ccc1C(=O)N1CCN(C(=O)[C@@H]2CNCCN2)CC1 [Example 441, [4-[[3-[4-(difluoromethoxy)phenyl]imi-dazo[1,2-a]pyrazin-8-yl]amino]-2-methylphenyl]-[4-[(2S)-piperazine-2-carbonyl]piperazin-1-yl]methanone; hydrochloride] | 1200
12 | COC(=O)CC[C@H](N)C(=O)N1CCN(C(=O)c2ccc(Nc3nccn4c(-c5ccc(OC(F)F)cc5)cnc34)cc2C)CC1 [Example 444, methyl (4S)-4-amino-5-[4-[4-[[3-[4-(difluoromethoxy)phenyl]imi-dazo[1,2-a]pyrazin-8-yl]amino]-2-methylbenzoyl]piperazin-1-yl]-5-oxopentanoate; hydrochloride] | 1900
13 | Cc1cc(Nc2nccn3c(-c4ccc(OC(F)F)cc4)cnc23)ccc1C(=O)N1CCN(C(=O)N2CCN[C@@H](C(=O)O)C2)CC1 [Example 445, (2R)-4-[4-[4-[[3-[4-(difluoromethoxy)phenyl]imi-dazo[1,2-a]pyrazin-8-yl]amino]-2-methylbenzoyl]piperazine-1-carbonyl]piperazine-2-carboxylic acid; hydrochloride] | 1900
14 | Cc1cc(Nc2nccn3c(-c4ccc(OC(F)F)cc4)cnc23)ccc1C(=O)N1CCN(C(=O)C2=CCNCC2)CC1 [Example 447, [4-[[3-[4-(difluoromethoxy)phenyl]imi-dazo[1,2-a]pyrazin-8-yl]amino]-2-methylphenyl]-[4-(1,2,3,6-tetrahydropyridine-4-carbonyl)piperazin-1-yl]methanone; hydrochloride] | 2000
15 | Cc1cc(Nc2nccn3c(-c4ccc(OC(F)F)cc4)cnc23)ccc1C(=O)N1CCN(C(=O)[C@@H](N)CC(=O)O)CC1 [Example 448, (3S)-3-amino-4-[4-[4-[[3-[4-(difluoromethoxy)phenyl]imi-dazo[1,2-a]pyrazin-8-yl]amino]-2-methylbenzoyl]piperazin-1-yl]-4-oxobutanoic acid; hydrochloride] | 2200
16 | Cc1cc(Nc2nccn3c(-c4ccc(OC(F)F)cc4)cnc23)ccc1C(=O)N1CCN(C(=O)[C@@H](N)CCCCN)CC1 [Example 452, (2S)-2,6-diamino-1-[4-[4-[[3-[4-(difluoromethoxy)phenyl]imi-dazo[1,2-a]pyrazin-8-yl]amino]-2-methylbenzoyl]piperazin-1-yl]hexan-1-one; hydrochloride] | 3600
17 | Cc1cc(Nc2nccn3c(-c4ccc(OS(C)(=O)=O)c(F)c4F)cnc23)ccc1C(=O)N1CCN(C(=O)[C@@H]2C[C@@H](O)CN2)CC1 [Example 453, [2,3-difluoro-4-[8-[4-[4-[(2S,4R)-4-hydroxypyrrolidine-2-carbonyl]piperazine-1-carbonyl]-3-methylanilino]imidazo[1,2-a]pyrazin-3-yl]phenyl] methanesulfonate; formic acid] | 4200
18 | CCc1cc(Nc2nccn3c(-c4ccc(OS(C)(=O)=O)c(F)c4F)cnc23)ccc1C(=O)N1CCN(C(=O)[C@@H]2C[C@@H](O)CN2)CC1 [Example 454, [4-[8-[3-ethyl-4-[4-[(2S,4R)-4-hydroxypyrrolidine-2-carbonyl]piperazine-1-carbonyl]anilino]imidazo[1,2-a]pyrazin-3-yl]-2,3-difluorophenyl] methanesulfonate; formic acid] | 4700
19 | CC[C@@]1(O)CN[C@H](C(=O)N2CCN(C(=O)c3ccc(Nc4nccn5c(-c6ccc(OC)c(F)c6F)cnc45)cc3C)CC2)C1 [Example 456, [4-[[3-(2,3-difluoro-4-methoxyphenyl)imidazo[1,2-a]pyrazin-8-yl]amino]-2-methylphenyl]-[4-[(2S,4S)-4-ethyl-4-hydroxypyrrolidine-2-carbonyl]piperazin-1-yl]methanone; formic acid] | 68
20 | CCc1cc(Nc2nccn3c(-c4ccc(OCC#N)c(F)c4F)cnc23)ccc1C(=O)NCCNC(=O)[C@@H]1C[C@@H](O)CN1 [Example 457, (2S,4R)-N-[2-[[4-[[3-[4-(cyanomethoxy)-2,3-difluorophenyl]imidazo[1,2-a]pyrazin-8-yl]amino]-2-ethylbenzoyl]amino]ethyl]-4-hydroxypyrrolidine-2-carboxamide; formic acid] | 80
21 | COc1ccc(-c2cnc3c(Nc4ccc(C(=O)N5CCN(C(=O)[C@H]6CCNC6)CC5)c(C)c4)nccn23)c(F)c1F [Example 460, [4-[[3-(2,3-difluoro-4-methoxyphenyl)imidazo[1,2-a]pyrazin-8-yl]amino]-2-methylphenyl]-[4-[(3S)-pyrrolidine-3-carbonyl]piperazin-1-yl]methanone; hydrochloride] | 83
22 | Cc1cc(Nc2nccn3c(-c4ccc(OC(F)F)cc4)cnc23)ccc1C(=O)N1CCN(C(=O)[C@@H]2C[C@](C)(O)CN2)CC1 [Example 462, [4-[[3-[4-(difluoromethoxy)phenyl]imi-dazo[1,2-a]pyrazin-8-yl]amino]-2-methylphenyl]-[4-[(2S,4S)-4-hydroxy-4-methylpyrrolidine-2-carbonyl]piperazin-1-yl]methanone; formic acid] | 110
23 | CC[C@]1(O)CN[C@H](C(=O)N2CCN(C(=O)c3ccc(Nc4nccn5c(-c6ccc(OC)c(F)c6F)cnc45)cc3C)CC2)C1 [Example 465, [4-[[3-(2,3-difluoro-4-methoxyphenyl)imidazo[1,2-a]pyrazin-8-yl]amino]-2-methylphenyl]-[4-[(2S,4R)-4-ethyl-4-hydroxypyrrolidine-2-carbonyl]piperazin-1-yl]methanone; formic acid] | 170
